Source: patent publication US11766470B2, “Manufacture, formulation and dosing of apraglutide” (VectivBio AG, priority 2020, dated 2023)
Square brackets hold non-standard residues; d marks the D form. Peptide text beside a SMILES is read from it. ξ: configuration not given here. Ile(3ξ) = CCC(C)[C@H](N)C(=O)O; Thr(3ξ) = CC(O)[C@H](N)C(=O)O; Nle = CCCC[C@H](N)C(=O)O

Columns and labels:
[1] = cited from earlier work
[2] = test system: patients with SBS-IF or SBS-II; assay: Safety assessments (adverse events) in Phase 2 metabolic balance trial (Example 6)
Procedure: Patients were treated with once weekly 5 mg apraglutide for four weeks. Apraglutide was provided as a freeze-dried powder for reconstitution in sterile water prior to injection, and treatments were administered as subcutaneous injections in the abdominal area. A 72-hour metabolic balance study was performed at baseline and at the end of the treatment period (starting one day after the fourth and last apraglutide injection). Each 72-hour metabolic balance study was performed during a five-day hospital admission. On the day of admission, patients were instructed to create a 24-hour drinking menu based on their habitual oral fluid intake. The drinking menu was to be followed during each balance study. On the second day of admission, just after the patients had urinated and emptied their stoma bags or defecated, the balance study was initiated. […] Daily PS and compliance to the predefined drinking menu was documented during admissions.
First, second and fourth apraglutide injections were performed at the hospital. Safety assessments included observation for injection site reactions, vital signs, blood samples, electrocardiogram (ECG), urinalysis and body weight. They were performed at baseline, during each injection of the trial drug, four days after first injection, at the end of treatment and 4-6 weeks after last dosing at the end of the trial, as shown in Table 20. Liver enzymes were measured prior to each drug administration.

[3] = clinical; conditions: human, in vivo; for half-life: t1/2, arithmetic mean ± SD; for CL/F: sc
Procedure: 23 healthy adult volunteers received 6 weekly subcutaneous doses of apraglutide (1, 5, or 10 mg) or placebo and were followed for a further 6 weeks after the last dose. Blood collections were controlled for diet, lifestyle, and diurnal effects. […] PK data underwent non-compartmental analysis and PD data were analyzed by ANCOVA.
As with citrulline, a statistical steady-state analysis per dose level was performed for apraglutide using Helmert's approach.

[4] = human, sc, 5 mg
Text: Plasma citrulline was used as a pharmacodynamic (“PD”) marker to describe the effect of apraglutide. Similar to the pharmacokinetic (“PK”) model development, the PK/PD model was developed for the healthy individuals from studies GLY-101-2015 and TA799-002 only. For development of the PD model, the PD observations were fitted together with the PK observations using the final PK model with its structure, residual error-, covariates- and random effects-models. The starting model was a turnover model where plasma citrulline was constantly synthesized and degraded with the synthesis rate ksyn and the degradation rate kdeg. Plasma apraglutide stimulated citrulline synthesis via a sigmoid Emax relationship with the baseline citrulline level R0, the half-maximal effect at the concentration EC50, the maximal effect Emax, and a Hill coefficient gamma. It was assumed that citrulline turnover was in steady state such that citrulline synthesis was determined solely by citrulline baseline and degradation. The population PK/PD of plasma apraglutide was established with data from two studies in healthy volunteers and two studies with SBS patients that tested doses between 2.5 and 50 mg SC.
The population PK/PD model was used to predict plasma apraglutide exposure and plasma citrulline trough concentration-time profiles with and without inter-individual variability for individuals with body weights between 40 and 120 kg receiving weekly doses of 2.5, 5, or 10 mg SC. […] Apraglutide exposure for body weights between 40 and 120 kg and apraglutide SC doses of 2.5, 5, or 10 mg was compared to post-hoc exposure estimates of SBS patients. Bracketing at a body weight of 50 kg between doses of 2.5 and 5 mg was simulated.
Plasma citrulline was described by a turnover model and maximal PD effect model.

[5] = test system: subjects with severe renal impairment; assay: Safety in Phase I renal impairment trial (Example 10); type: in vivo, human; conditions: 5 mg single SC dose
Procedure: The following non-limiting example describes a Phase I clinical trial in which subjects with normal and impaired kidney function are treated with the apraglutide formulations of the present disclosure. This Phase I clinical trial investigates the pharmacokinetics and safety of a single subcutaneous dose of 5 mg apraglutide in subjects with varying degrees of renal function. The renal function is calculated by the estimated glomerular filtration rate (eGFR) according to the Chronic Kidney Disease Epidemiology (CKD-EPI) Creatinine Equation.
The trial is a two-stage, open label, multi-center, non-randomized, Phase I trial. In Part 1 of the trial, 8 subjects with severe renal impairment (Cohort 1) and 6 subjects with normal renal function (Cohort 2) will be administered a single dose 5 mg apraglutide of the present disclosure. In Part 2 of the trial, 8 subjects with moderate renal impairment (Cohort 3) and 8 subjects with mild renal impairment (Cohort 4) will be administered a single dose 5 mg apraglutide of the present disclosure. Subjects will be enrolled if the geometric mean ratio (GMR) of AUCinf or AUClast for the severe renal impairment group compared to the control group is ≥2.
The secondary endpoints to be evaluated, include, but are not limited to: • 1. […] Clinically significant change from baseline in recorded triplicate 12-lead ECG at days 14-28 • 10. […]

[6] = Solubility, pH and isoelectric point of the peptide; type: physicochemical; conditions: purified water
[7] = Plasma concentration of apraglutide (LC-MS/MS) in Phase 2 metabolic balance trial (Example 6); type: in vivo, human; conditions: 5 mg SC once weekly, SBS patients
Procedure: (§1) Blood samples for analysis of the plasma concentration of apraglutide and plasma concentration of fasting L-citrulline, a marker of enterocyte mass, were collected at baseline, during first and second injection (pre-dose and at sequential timepoints), four days after first injection and at the end of treatment. Blood sampling for apraglutide pharmacokinetics was also performed after the fourth and last injection covering 96 hours. […] Blood samples for anti-apraglutide antibodies were collected at baseline, at the end of treatment and at the 4-6 weeks follow-up visit. All eight patients tested negative for anti-apraglutide antibodies at baseline.
Apraglutide and L-citrulline were quantified using a validated LC-MS-based method. For a apraglutide, the analytical method used solid-phase extraction purification of the intact apraglutide molecule and its internal standard. The compounds were identified and quantified using reversed-phase HPLC with MS/MS detection using an AB Sciex API 5000 quadrupole mass spectrometer. For samples below the limit of quantification of 5.00 ng/mL, compounds were identified and quantified using reversed-phase UHPLC with MS/MS detection using an AB Sciex API 5500 quadrupole mass spectrometer. For L-citrulline, the analytical method used protein precipitation extraction of L-citrulline and its internal standard. The compounds were identified and quantified using Hilic HPLC with MS/MS detection using an AB Sciex API 5000 quadrupole mass spectrometer.

[8] = test system: anti-apraglutide antibodies; assay: Anti-apraglutide antibodies ELISA in serum, Phase 2 metabolic balance trial (Example 6); type: in vivo, human
Procedure: as §1
A fully validated ELISA method was used for the detection of anti-apraglutide antibodies in serum, following a three-tiered assay approach. In the first tier, anti-apraglutide antibodies present in samples and controls bonded to apraglutide immobilized on a microtiter plate. The bound anti-apraglutide antibodies were then detected with protein A/G and protein L. A sample with a signal above the validated screening cut-point was considered potentially positive and was then tested in the second tier, the confirmatory assay. For this, samples were pre-treated with an excess of apraglutide prior to testing them in the assay described above. […] Titers were then determined by serial dilution of all confirmed positive samples.

CCCC[C@H](NC(=O)[C@H](CCC(=O)O)NC(=O)[C@H](CC(=O)O)NC(=O)[C@H](CO)NC(=O)[C@H](Cc1ccccc1)NC(=O)[C@H](CO)NC(=O)CNC(=O)[C@H](CC(=O)O)NC(=O)CNC(=O)[C@@H](N)Cc1c[nH]cn1)C(=O)N[C@H](Cc1ccccc1)C(=O)N[C@H](C(=O)N[C@H](C(=O)N[C@@H](CC(C)C)C(=O)N[C@@H](CC(=O)O)C(=O)N[C@@H](CC(C)C)C(=O)N[C@@H](CC(C)C)C(=O)N[C@@H](C)C(=O)N[C@@H](C)C(=O)N[C@@H](CCCNC(=N)N)C(=O)N[C@@H](CC(=O)O)C(=O)N[C@@H](Cc1ccccc1)C(=O)N[C@H](C(=O)N[C@@H](CC(N)=O)C(=O)N[C@@H](Cc1c[nH]c2ccccc12)C(=O)N[C@@H](CC(C)C)C(=O)N[C@H](C(=O)N[C@@H](CCC(N)=O)C(=O)N[C@H](C(=O)N[C@@H](CCCCN)C(=O)N[C@H](C(=O)N[C@H](C(=O)N[C@@H](CC(=O)O)C(N)=O)C(C)O)C(C)CC)C(C)O)C(C)CC)C(C)CC)C(C)CC)C(C)O (stereo partly drawn) [apraglutide, L-histidyl-glycyl-L-aspartyl-glycyl-L-seryl-L-phenylalanyl-L-seryl-L-aspartyl-L-glutamyl-L-norleucyl-D-phenylalanyl-L-threonyl-Lisoleucyl-L-leucyl-L-aspartyl-L-leucyl-L-leucyl-L-alanyl-L-alanyl-L-arginyl-L-aspartyl-L-phenylalanyl-L-isoleucyl-L-asparaginyl-Ltryptophanyl-L-leucyl-L-isoleucyl-L-glutaminyl-L-threonyl-L-lysyl-L-isoleucyl-L-threonyl-Laspartic acid amide] (H-HGDGSFSDE[Nle][dF][Thr(3ξ)][Ile(3ξ)]LDLLAARDF[Ile(3ξ)]NWL[Ile(3ξ)]Q[Thr(3ξ)]K[Ile(3ξ)][Thr(3ξ)]D-NH2)
Intestinotrophic effect in animal models, in words [1]: promoted increase in intestinal length and weight, villus height and crypt depth
Injection site reactions (transient), number of patients ([2]; 5 mg): One
Patients with serious adverse events ([2]; 5 mg): two
Serious adverse events assessed as related to the trial drug (abdominal pain) ([2]; 5 mg): One
Serious adverse events, number ([2]; 5 mg): three
Safety and tolerability in words ([2]; 5 mg once weekly, four weeks, SBS-II and SBS-IF): safe and well tolerated
Abdominal pain, number of patients ([2]; SBS-IF (N = 4), 5 mg): 2
Any adverse event, number of patients ([2]; SBS-IF (N = 4), 5 mg): 4
Flatulence, number of patients ([2]; SBS-IF (N = 4), 5 mg): 1
Fluid retention, number of patients ([2]; SBS-IF (N = 4), 5 mg): 1
Gastrointestinal stoma complication, number of patients ([2]; SBS-IF (N = 4), 5 mg): 2
Gastrointestinal stoma output abnormal, number of patients ([2]; SBS-IF (N = 4), 5 mg): 1
Gastrointestinal stoma output decreased, number of patients ([2]; SBS-IF (N = 4), 5 mg): 3
Nausea, number of patients ([2]; SBS-IF (N = 4), 5 mg): 4
Polyuria, number of patients ([2]; SBS-IF (N = 4), 5 mg): 1
Stoma complication, number of patients ([2]; SBS-IF (N = 4), 5 mg): 3
Weight increased, number of patients ([2]; SBS-IF (N = 4), 5 mg): 0
Abdominal pain, number of patients ([2]; SBS-II (N = 4), 5 mg): 1
Any adverse event, number of patients ([2]; SBS-II (N = 4), 5 mg): 4
Flatulence, number of patients ([2]; SBS-II (N = 4), 5 mg): 3
Fluid retention, number of patients ([2]; SBS-II (N = 4), 5 mg): 1
Gastrointestinal stoma complication, number of patients ([2]; SBS-II (N = 4), 5 mg): 3
Gastrointestinal stoma output abnormal, number of patients ([2]; SBS-II (N = 4), 5 mg): 3
Gastrointestinal stoma output decreased, number of patients ([2]; SBS-II (N = 4), 5 mg): 3
Nausea, number of patients ([2]; SBS-II (N = 4), 5 mg): 1
Polyuria, number of patients ([2]; SBS-II (N = 4), 5 mg): 2
Stoma complication, number of patients ([2]; SBS-II (N = 4), 5 mg): 3
Weight increased, number of patients ([2]; SBS-II (N = 4), 5 mg): 2
Abdominal pain, number of patients ([2]; Total (N = 8), 5 mg): 3
Any adverse event, number of patients ([2]; Total (N = 8), 5 mg): 8
Flatulence, number of patients ([2]; Total (N = 8), 5 mg): 4
Fluid retention, number of patients ([2]; Total (N = 8), 5 mg): 2
Gastrointestinal stoma complication, number of patients ([2]; Total (N = 8), 5 mg): 5
Gastrointestinal stoma output abnormal, number of patients ([2]; Total (N = 8), 5 mg): 4
Gastrointestinal stoma output decreased, number of patients ([2]; Total (N = 8), 5 mg): 6
Nausea, number of patients ([2]; Total (N = 8), 5 mg): 5
Polyuria, number of patients ([2]; Total (N = 8), 5 mg): 3
Stoma complication, number of patients ([2]; Total (N = 8), 5 mg): 6
Weight increased, number of patients ([2]; Total (N = 8), 5 mg): 2
Vd/F ([3]; 5 mg): 55.4 L
half-life ([3]; 5 mg): 73 h
Vd/F ([3]; 10 mg): 105 L
half-life ([3]; 10 mg): 76.3 h
CL/F ([3]; 1 mg): 12.2 mL/min
CL/F ([3]; 5 mg): 11.4 mL/min
CL/F ([3]; 10 mg): 14.4 mL/min
Time of peak plasma concentration (Cmax), population PK/PD model estimate [4]: 1.39 days
Safety in patients with severe CKD, in words [5]: safe to dose the patients with severe CKD with apraglutide 5 mg, without the risk of overdose
solubility [6]: > 100 mg/mL
Mean clearance [7]: 0.9 L/h
Cmax ([7]; human, plasma, read-out: Maximum mean plasma concentration): 118 ng/mL
half-life ([7]; human, plasma, read-out: Mean elimination half-life (converted)): 27 h
Tmax ([7]; human, plasma, read-out: Mean time to maximum concentration): 29.5 h
Patients who developed anti-apraglutide antibodies ([8]; during the trial, patient with SBS-IF): One
Effects of anti-apraglutide antibodies on PK profile, pharmacodynamic response, adverse events ([8]; in vivo): No effects of anti-apraglutide antibodies were detected
